These results are taken from patent US7718647B2, “Substituted azepine derivatives as serotonin receptor modulators” (Athersys, Inc., priority 2004, dated 2010).

For this assay, the target named is T1, human 5HT2c receptor (Homo sapiens, UniProt P28335, I156V/I160V, form not given).
T1 sequence (P28335 1-458 I156V/N158S/I160V): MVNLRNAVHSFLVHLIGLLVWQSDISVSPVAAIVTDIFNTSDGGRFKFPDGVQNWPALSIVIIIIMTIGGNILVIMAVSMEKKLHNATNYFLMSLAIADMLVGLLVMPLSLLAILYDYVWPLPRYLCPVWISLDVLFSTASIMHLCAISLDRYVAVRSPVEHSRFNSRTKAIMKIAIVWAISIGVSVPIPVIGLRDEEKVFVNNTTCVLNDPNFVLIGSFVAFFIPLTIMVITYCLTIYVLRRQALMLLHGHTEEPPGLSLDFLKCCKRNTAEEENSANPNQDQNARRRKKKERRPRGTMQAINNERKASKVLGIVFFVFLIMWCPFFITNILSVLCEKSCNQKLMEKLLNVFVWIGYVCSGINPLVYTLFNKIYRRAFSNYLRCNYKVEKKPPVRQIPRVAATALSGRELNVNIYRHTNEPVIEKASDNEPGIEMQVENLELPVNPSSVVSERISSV
As to the kind of experiment: Calcium mobilization (FLIPR) 5HT2c receptor agonist assay in HEK 293 EBNA cells. It is filed as cell-based. Conditions: agonist-stimulated calcium release, HEK 293 EBNA cells expressing human 5HT2c receptor, read-out: 5-HT2c EC50 (hVSV).
On to `Cc1c(Br)sc2c1CCNCC2` [Example 16, 2-Bromo-3-methyl-5,6,7,8-tetrahydro-4H-thieno[2,3-d]azepine], for which the EC50 was < 10 nM.

`COc1c(C)sc2c1CCNCC2` [Example 17, 3-Methoxy-2-methyl-5,6,7,8-tetrahydro-4H-thieno[2,3-d]azepine]: the EC50 is < 10 nM.

Take `CC(C)(C)CC(C)(C)c1sc2c(c1Cl)CCNCC2` [Example 47, 3-Chloro-2-(1,1,3,3-tetramethyl-butyl)-5,6,7,8-tetrahydro-4H-thieno[2,3-d]azepine]: the concentration for a half-maximal effect (EC50) was < 10000 nM.

Consider `COc1c(C(C)C)sc2c1CCNCC2` [Example 22, 2-Isopropyl-3-methoxy-5,6,7,8-tetrahydro-4H-thieno[2,3-d]azepine], for which the EC50 is < 10 nM.

As for `CN(C)S(=O)(=O)c1cc2c(s1)CCNCC2` [Example 27, 5,6,7,8-Tetrahydro-4H-thieno[2,3-d]azepine-2-sulfonic acid dimethylamide], the EC50 was < 10 nM.

In the case of `Clc1sc2c(c1Cl)CCNCC2` [Example 4, 2,3-Dichloro-5,6,7,8-tetrahydro-4H-thieno[2,3-d]azepine], the EC50 was < 10 nM.

Take `COc1c(Br)sc2c1CCNCC2` [Example 18, 2-Bromo-3-methoxy-5,6,7,8-tetrahydro-4H-thieno[2,3-d]azepine]: the EC50 is < 10 nM.

For the compound `C=C(C)c1sc2c(c1OC)CCNCC2` [Example 20, 2-Isopropenyl-3-methoxy-5,6,7,8-tetrahydro-4H-thieno[2,3-d]azepine], the EC50 is < 10 nM.

Regarding `Cc1sc2c3c1CCC3CNCC2` (racemic) [Example 38, (R,S)-2-Methyl-4,4a,5,6,7,8-hexahydro-3H-1-thia-6-aza-cyclopenta[cd]azulene], the EC50 was < 1000 nM.

For the compound `Fc1ccc(-c2cc3c(s2)CCNCC3)cc1Cl` [Example 9, 2-(3-Chloro-4-fluoro-phenyl)-5,6,7,8-tetrahydro-4H-thieno[2,3-d]azepine], the EC50 is > 10000 nM.

Take `COc1cccc(-c2cc3c(s2)CCNCC3)c1` [Example 12, 2-(3-Methoxy-phenyl)-5,6,7,8-tetrahydro-4H-thieno[2,3-d]azepine]: the EC50 was < 10000 nM.

With `COc1c(C(C)(C)C)sc2c1CCNCC2` [Example 44, 2-tert-Butyl-3-methoxy-5,6,7,8-tetrahydro-4H-thieno[2,3-d]azepine], the EC50 was < 10 nM.

For `Cc1c(C(C)(C)C)sc2c1CCNCC2` [Example 21, 2-tert-Butyl-3-methyl-5,6,7,8-tetrahydro-4H-thieno[2,3-d]azepine], the EC50 is < 100 nM.

Take `Fc1ccc(-c2cc3c(s2)CCNCC3)cc1` [Example 8, 2-(4-Fluoro-phenyl)-5,6,7,8-tetrahydro-4H-thieno[2,3-d]azepine]: the 50% effective concentration (EC50) is < 10000 nM.

Turning to `FC(F)(F)c1cc2c(s1)CCNCC2` [Example 40, 2-Trifluoromethyl-5,6,7,8-tetrahydro-4H-thieno[2,3-d]azepine], the EC50 is < 10 nM.

Take `Fc1cccc(Cl)c1Cc1cc2c(s1)CCNCC2` [Example 14, 2-(2-Chloro-6-fluoro-benzyl)-5,6,7,8-tetrahydro-4H-thieno[2,3-d]azepine]: the EC50 is < 1000 nM.

For the compound `Clc1ccc(Cl)c(-c2cc3c(s2)CCNCC3)c1` [Example 10, 2-(2,5-Dichloro-phenyl)-5,6,7,8-tetrahydro-4H-thieno[2,3-d]azepine], the EC50 is > 10000 nM.

With `CC(C)(C)c1cc2c(s1)CCNCC2` [Example 45, 2-tert-Butyl-5,6,7,8-tetrahydro-4H-thieno[2,3-d]azepine], the EC50 is < 100 nM.

`O=C(NC1CCCC1)c1cc2c(s1)CCNCC2` [Example 29, 5,6,7,8-Tetrahydro-4H-thieno[2,3-d]azepine-2-carboxylic acid cyclopentylamide]: the EC50 is < 10000 nM.

On to `CC1CNCCc2sc(Br)c(Br)c21` (single isomer, unassigned) [32, Enantiomer 2], for which the EC50 was < 100 nM.

Take `CC(C)(C)c1sc2c3c1CCC3CNCC2` (single isomer, unassigned) [39, Enantiomer 2]: the EC50 is < 10 nM.

As to `Cc1c(Br)sc2c1C(C)CNCC2` (single isomer, unassigned) [36, Enantiomer 1], the EC50 was > 10000 nM.

`Cc1c(S(=O)(=O)N(C)C)sc2c1CCNCC2` [Example 28, 3-Methyl-5,6,7,8-tetrahydro-4H-thieno[2,3-d]azepine-2-sulfonic acid dimethylamide]: the EC50 was < 10 nM.

As for `Brc1cc2c(s1)CCNCC2` [Example 1, 2-Bromo-5,6,7,8-tetrahydro-4H-thieno[2,3-d]azepine], the EC50 is < 10 nM.

With `CN(C)C(=O)c1cc2c(s1)CCNCC2` [Example 30, 5,6,7,8-Tetrahydro-4H-thieno[2,3-d]azepine-2-carboxylic acid dimethylamide], the EC50 was < 1000 nM.

For the compound `Clc1csc2c1CCNCC2` [Example 48, 3-Chloro-5,6,7,8-tetrahydro-4H-thieno[2,3-d]azepine], the EC50 is < 10000 nM.

For `CC1(C)CNCCc2cc(Br)sc21` [Example 34, 2-Bromo-8,8-dimethyl-5,6,7,8-tetrahydro-4H-thieno[2,3-d]azepine], the EC50 was < 10000 nM.

Take `CC(C)(C)c1sc2c3c1CCC3CNCC2` (single isomer, unassigned) [39, Enantiomer 1]: the 50% effective concentration (EC50) was < 100 nM.

Regarding `Brc1sc2c3c1CCC3CNCC2` (single isomer, unassigned) [37, Enantiomer 2], the EC50 was < 100 nM.

With `FC(F)(F)Oc1ccc(-c2cc3c(s2)CCNCC3)cc1` [Example 6, 2-(4-Trifluoromethoxy-phenyl)-5,6,7,8-tetrahydro-4H-thieno[2,3-d]azepine], the EC50 was > 10000 nM.

As to `Brc1cc2c(o1)CCNCC2` [Example 49, 2-Bromo-5,6,7,8-tetrahydro-4H-furo[2,3-d]azepine], the concentration giving a half-maximal response (EC50) is < 1000 nM.

Consider `CCC1CNCCc2sc(Br)cc21` (racemic) [Example 35, (R,S)-2-Bromo-4-ethyl-5,6,7,8-tetrahydro-4H-thieno[2,3-d]azepine], for which the EC50 was < 100 nM.

Turning to `Brc1cc2c(s1)C1(CC1)CNCC2` [Example 25, 2-Bromo-8-spirocyclopropyl-5,6,7,8-tetrahydro-4H-thieno[2,3-d]azepine], the EC50 was < 1000 nM.

Consider `Brc1sc2c(c1Br)CCNCC2` [Example 3, 2,3-Dibromo-5,6,7,8-tetrahydro-4H-thieno[2,3-d]azepine], for which the EC50 is < 10 nM.

As to `COC1CNCCc2sc(Br)cc21` (racemic) [Example 33, (R,S)-2-Bromo-4-methoxy-5,6,7,8-tetrahydro-4H-thieno[2,3-d]azepine], the EC50 is < 1000 nM.

As for `Clc1c(Br)sc2c1CCNCC2` [Example 5, 2-Bromo-3-chloro-5,6,7,8-tetrahydro-4H-thieno[2,3-d]azepine], the EC50 is < 10 nM.

On to `Clc1cc2c(s1)CCNCC2` [Example 2, 2-Chloro-5,6,7,8-tetrahydro-4H-thieno[2,3-d]azepine], for which the EC50 is < 100 nM.

Regarding `CC(C)(C)c1sc2c(c1Cl)CCNCC2` [Example 46, 2-tert-Butyl-3-chloro-5,6,7,8-tetrahydro-4H-thieno[2,3-d]azepine], the EC50 was < 100 nM.

As to `CC1CNCCc2cc(Cl)sc21` (racemic) [Example 31, (R,S)-2-Chloro-8-methyl-5,6,7,8-tetrahydro-4H-thieno[2,3-d]azepine], the EC50 is < 100 nM.

As for `c1ccc(-c2cc3c(s2)CCNCC3)cc1` [Example 13, 2-Phenyl-5,6,7,8-tetrahydro-4H-thieno[2,3-d]azepine], the EC50 is < 10000 nM.

Turning to `FC(F)(F)c1sc2c(c1Br)CCNCC2` [Example 42, 3-Bromo-2-trifluoromethyl-5,6,7,8-tetrahydro-4H-thieno[2,3-d]azepine], the EC50 was < 10 nM.

Regarding `FC(F)(F)c1ccccc1-c1cc2c(s1)CCNCC2` [Example 7, 2-(2-Trifluoromethyl-phenyl)-5,6,7,8-tetrahydro-4H-thieno[2,3-d]azepine], the EC50 is > 10000 nM.

Regarding `FC(F)(F)c1sc2c(c1Cl)CCNCC2` [Example 41, 3-Chloro-2-trifluoromethyl-5,6,7,8-tetrahydro-4H-thieno[2,3-d]azepine], the EC50 was < 100 nM.

As for `CCc1ccc(-c2cc3c(s2)CCNCC3)cc1` [Example 11, 2-(4-Ethyl-phenyl)-5,6,7,8-tetrahydro-4H-thieno[2,3-d]azepine], the EC50 is > 10000 nM.

As for `Brc1sc2c3c1CCC3CNCC2` (single isomer, unassigned) [37, Enantiomer 1], the EC50 is < 1000 nM.

For the compound `COc1c(Cl)sc2c1CCNCC2` [Example 19, 2-Chloro-3-methoxy-5,6,7,8-tetrahydro-4H-thieno[2,3-d]azepine], the EC50 is < 1000 nM.

Take `Cc1csc2c1CCNCC2` [Example 43, 3-Methyl-5,6,7,8-tetrahydro-4H-thieno[2,3-d]azepine]: the EC50 is < 1000 nM.

`Cc1c(Br)sc2c1C(C)CNCC2` (single isomer, unassigned) [36, Enantiomer 2]: the EC50 is < 1000 nM.

Regarding `CC1CNCCc2sc(Br)c(Br)c21` (single isomer, unassigned) [32, Enantiomer 1], the EC50 is < 10000 nM.

On to `Fc1cccc(Cl)c1Cc1sc2c(c1Br)CCNCC2` [Example 15, 3-Bromo-2-(2-chloro-6-fluoro-benzyl)-5,6,7,8-tetrahydro-4H-thieno [2,3-d]azepine], for which the EC50 is < 10000 nM.

As a reminder, the EC50 is the concentration needed to bring the measured effect to its halfway point.
